Measurements taken from patent US6417176B2, “Arylsulfonanilide phosphates” (Tularik, Inc., priority 1998, dated 2002).

Tested on: HeLa cells
Details: 72 hours of treatment, 50% growth inhibition

“5-(Pentafluorophenylsulfonamido)-2-methoxyphenyl phosphate [Example 1]” was tested, and the GI50 was 15 nM.
